Laboratory results published in patent US20220096516A1, “OLIGONUCLEOTIDE MOLECULE AND APPLICATION THEREOF IN TUMOR THERAPY” (Ractigen Therapeutics, priority 2019, published 2022).
d = 2'-deoxy (DNA); r = 2'-OH (RNA)

system: LHPP gene; test: High-throughput screening of saRNAs targeting LHPP promoter: LHPP mRNA by one-step RT-qPCR in Huh7 cells; format: cell-based, human; conditions: 10 nM saRNA, 72 hours, relative to control (Mock)
In short: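 Huh7 cells were transfected with 10 nM saRNA using RNAiMax and lysed 72 h later. LHPP mRNA was quantified by one-step RT-qPCR in triplicate wells. Expression was normalised to HPRT1 and TBP and given as fold change versus mock-transfected cells.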

In order of rising “Fold of changes in relative LHPP mRNA expression level” value:
1. RAG7-107: saRNA duplex; sense AGAAAGCUUCCGAAAAGGATT (SEQ ID NO: 156), antisense UCCUUUUCGGAAGCUUUCUTT (SEQ ID NO: 320) (sugars from the 5' end r19 d2, backbone not given here)  1.11 fold
2. RAG7-745: saRNA duplex; sense AAAACCUCCUGGGUUUAACTT (SEQ ID NO: 154), antisense GUUAAACCCAGGAGGUUUUTT (SEQ ID NO: 318) (sugars from the 5' end r19 d2, backbone not given here)  1.11 fold
3. RAG7-885: saRNA duplex; sense CCAGAAGUAAAGUGUUCUCTT (SEQ ID NO: 147), antisense GAGAACACUUUACUUCUGGTT (SEQ ID NO: 311) (sugars from the 5' end r19 d2, backbone not given here)  1.14 fold
4. RAG7-833: saRNA duplex; sense GCCAUUGAGGAAACUCCUCTT (SEQ ID NO: 138), antisense GAGGAGUUUCCUCAAUGGCTT (SEQ ID NO: 302) (sugars from the 5' end r19 d2, backbone not given here)  1.14 fold
5. RAG7-914: saRNA duplex; sense CUUCUUUGAAAGCUCAAAGTT (SEQ ID NO: 143), antisense CUUUGAGCUUUCAAAGAAGTT (SEQ ID NO: 307) (sugars from the 5' end r19 d2, backbone not given here)  1.14 fold
6. RAG7-98: saRNA duplex; sense CCGAAAAGGACACCGUUUCTT (SEQ ID NO: 145), antisense GAAACGGUGUCCUUUUCGGTT (SEQ ID NO: 309) (sugars from the 5' end r19 d2, backbone not given here)  1.14 fold
7. RAG7-670: saRNA duplex; sense CAGGGCUGUUAUCUGCAUATT (SEQ ID NO: 136), antisense UAUGCAGAUAACAGCCCUGTT (SEQ ID NO: 300) (sugars from the 5' end r19 d2, backbone not given here)  1.15 fold
8. RAG7-198: saRNA duplex; sense UACAGGUGCCUUCUUGUCUTT (SEQ ID NO: 134), antisense AGACAAGAAGGCACCUGUATT (SEQ ID NO: 298) (sugars from the 5' end r19 d2, backbone not given here)  1.16 fold
9. RAG7-704: saRNA duplex; sense UUCUCAGCCCAGGUCCUAUTT (SEQ ID NO: 112), antisense AUAGGACCUGGGCUGAGAATT (SEQ ID NO: 276) (sugars from the 5' end r19 d2, backbone not given here)  1.19 fold
10. RAG7-89: saRNA duplex; sense ACACCGUUUCAGGGGCGAGTT (SEQ ID NO: 104), antisense CUCGCCCCUGAAACGGUGUTT (SEQ ID NO: 268) (sugars from the 5' end r19 d2, backbone not given here)  1.21 fold
11. RAG7-708: saRNA duplex; sense UUUCUUCUCAGCCCAGGUCTT (SEQ ID NO: 106), antisense GACCUGGGCUGAGAAGAAATT (SEQ ID NO: 270) (sugars from the 5' end r19 d2, backbone not given here)  1.21 fold
12. RAG7-905: saRNA duplex; sense AAGCUCAAAGCUAUGUUGGTT (SEQ ID NO: 92), antisense CCAACAUAGCUUUGAGCUUTT (SEQ ID NO: 256) (sugars from the 5' end r19 d2, backbone not given here)  1.24 fold
13. RAG7-686: saRNA duplex; sense UGCAUCCUCAUCUAUGCAGTT (SEQ ID NO: 86), antisense CUGCAUAGAUGAGGAUGCATT (SEQ ID NO: 250) (sugars from the 5' end r19 d2, backbone not given here)  1.25 fold
14. RAG7-896: saRNA duplex; sense GCUAUGUUGGACCAGAAGUTT (SEQ ID NO: 69), antisense ACUUCUGGUCCAACAUAGCTT (SEQ ID NO: 233) (sugars from the 5' end r19 d2, backbone not given here)  1.30 fold
15. RAG7-169: saRNA duplex; sense UUGACCUUUCUUAGGGACUTT (SEQ ID NO: 61), antisense AGUCCCUAAGAAAGGUCAATT (SEQ ID NO: 225) (sugars from the 5' end r19 d2, backbone not given here)  1.34 fold
16. RAG7-121: saRNA duplex; sense CUGAUCUCCUGGGAAGAAATT (SEQ ID NO: 52), antisense UUUCUUCCCAGGAGAUCAGTT (SEQ ID NO: 216) (sugars from the 5' end r19 d2, backbone not given here)  1.36 fold
17. RAG7-125: saRNA duplex; sense UCCGCUGAUCUCCUGGGAATT (SEQ ID NO: 55), antisense UUCCCAGGAGAUCAGCGGATT (SEQ ID NO: 219) (sugars from the 5' end r19 d2, backbone not given here)  1.36 fold
18. RAG7-850: saRNA duplex; sense UUGAAAGGUUCCGAGGGGCTT (SEQ ID NO: 46), antisense GCCCCUCGGAACCUUUCAATT (SEQ ID NO: 210) (sugars from the 5' end r19 d2, backbone not given here)  1.39 fold
19. RAG7-690: saRNA duplex; sense CCUAUGCAUCCUCAUCUAUTT (SEQ ID NO: 42), antisense AUAGAUGAGGAUGCAUAGGTT (SEQ ID NO: 206) (sugars from the 5' end r19 d2, backbone not given here)  1.42 fold
20. RAG7-697: saRNA duplex; sense CCCAGGUCCUAUGCAUCCUTT (SEQ ID NO: 41), antisense AGGAUGCAUAGGACCUGGGTT (SEQ ID NO: 205) (sugars from the 5' end r19 d2, backbone not given here)  1.43 fold
21. RAG7-189: saRNA duplex; sense CUUCUUGUCUCAAUUUGCCTT (SEQ ID NO: 35), antisense GGCAAAUUGAGACAAGAAGTT (SEQ ID NO: 199) (sugars from the 5' end r19 d2, backbone not given here)  1.47 fold
22. RAG7-847: saRNA duplex; sense AAAGGUUCCGAGGGGCCAUTT (SEQ ID NO: 34), antisense AUGGCCCCUCGGAACCUUUTT (SEQ ID NO: 198) (sugars from the 5' end r19 d2, backbone not given here)  1.48 fold
23. RAG7-916: saRNA duplex; sense CUCUUCUUUGAAAGCUCAATT (SEQ ID NO: 33), antisense UUGAGCUUUCAAAGAAGAGTT (SEQ ID NO: 197) (sugars from the 5' end r19 d2, backbone not given here)  1.48 fold
24. RAG7-195: saRNA duplex; sense AGGUGCCUUCUUGUCUCAATT (SEQ ID NO: 28), antisense UUGAGACAAGAAGGCACCUTT (SEQ ID NO: 192) (sugars from the 5' end r19 d2, backbone not given here)  1.51 fold
25. RAG7-95: saRNA duplex; sense AAAAGGACACCGUUUCAGGTT (SEQ ID NO: 12), antisense CCUGAAACGGUGUCCUUUUTT (SEQ ID NO: 176) (sugars from the 5' end r19 d2, backbone not given here)  1.67 fold

In order of rising “Fold of changes in relative LHPP mRNA expression level (log2)” value:
1. RAG7-107: saRNA duplex; sense AGAAAGCUUCCGAAAAGGATT (SEQ ID NO: 156), antisense UCCUUUUCGGAAGCUUUCUTT (SEQ ID NO: 320) (sugars from the 5' end r19 d2, backbone not given here)  0.15 log2
2. RAG7-745: saRNA duplex; sense AAAACCUCCUGGGUUUAACTT (SEQ ID NO: 154), antisense GUUAAACCCAGGAGGUUUUTT (SEQ ID NO: 318) (sugars from the 5' end r19 d2, backbone not given here)  0.15 log2
3. RAG7-885: saRNA duplex; sense CCAGAAGUAAAGUGUUCUCTT (SEQ ID NO: 147), antisense GAGAACACUUUACUUCUGGTT (SEQ ID NO: 311) (sugars from the 5' end r19 d2, backbone not given here)  0.18 log2
4. RAG7-914: saRNA duplex; sense CUUCUUUGAAAGCUCAAAGTT (SEQ ID NO: 143), antisense CUUUGAGCUUUCAAAGAAGTT (SEQ ID NO: 307) (sugars from the 5' end r19 d2, backbone not given here)  0.19 log2
5. RAG7-98: saRNA duplex; sense CCGAAAAGGACACCGUUUCTT (SEQ ID NO: 145), antisense GAAACGGUGUCCUUUUCGGTT (SEQ ID NO: 309) (sugars from the 5' end r19 d2, backbone not given here)  0.19 log2
6. RAG7-833: saRNA duplex; sense GCCAUUGAGGAAACUCCUCTT (SEQ ID NO: 138), antisense GAGGAGUUUCCUCAAUGGCTT (SEQ ID NO: 302) (sugars from the 5' end r19 d2, backbone not given here)  0.20 log2
7. RAG7-670: saRNA duplex; sense CAGGGCUGUUAUCUGCAUATT (SEQ ID NO: 136), antisense UAUGCAGAUAACAGCCCUGTT (SEQ ID NO: 300) (sugars from the 5' end r19 d2, backbone not given here)  0.20 log2
8. RAG7-198: saRNA duplex; sense UACAGGUGCCUUCUUGUCUTT (SEQ ID NO: 134), antisense AGACAAGAAGGCACCUGUATT (SEQ ID NO: 298) (sugars from the 5' end r19 d2, backbone not given here)  0.21 log2
9. RAG7-704: saRNA duplex; sense UUCUCAGCCCAGGUCCUAUTT (SEQ ID NO: 112), antisense AUAGGACCUGGGCUGAGAATT (SEQ ID NO: 276) (sugars from the 5' end r19 d2, backbone not given here)  0.26 log2
10. RAG7-708: saRNA duplex; sense UUUCUUCUCAGCCCAGGUCTT (SEQ ID NO: 106), antisense GACCUGGGCUGAGAAGAAATT (SEQ ID NO: 270) (sugars from the 5' end r19 d2, backbone not given here)  0.27 log2
11. RAG7-89: saRNA duplex; sense ACACCGUUUCAGGGGCGAGTT (SEQ ID NO: 104), antisense CUCGCCCCUGAAACGGUGUTT (SEQ ID NO: 268) (sugars from the 5' end r19 d2, backbone not given here)  0.28 log2
12. RAG7-905: saRNA duplex; sense AAGCUCAAAGCUAUGUUGGTT (SEQ ID NO: 92), antisense CCAACAUAGCUUUGAGCUUTT (SEQ ID NO: 256) (sugars from the 5' end r19 d2, backbone not given here)  0.31 log2
13. RAG7-686: saRNA duplex; sense UGCAUCCUCAUCUAUGCAGTT (SEQ ID NO: 86), antisense CUGCAUAGAUGAGGAUGCATT (SEQ ID NO: 250) (sugars from the 5' end r19 d2, backbone not given here)  0.32 log2
14. RAG7-896: saRNA duplex; sense GCUAUGUUGGACCAGAAGUTT (SEQ ID NO: 69), antisense ACUUCUGGUCCAACAUAGCTT (SEQ ID NO: 233) (sugars from the 5' end r19 d2, backbone not given here)  0.38 log2
15. RAG7-169: saRNA duplex; sense UUGACCUUUCUUAGGGACUTT (SEQ ID NO: 61), antisense AGUCCCUAAGAAAGGUCAATT (SEQ ID NO: 225) (sugars from the 5' end r19 d2, backbone not given here)  0.42 log2
16. RAG7-125: saRNA duplex; sense UCCGCUGAUCUCCUGGGAATT (SEQ ID NO: 55), antisense UUCCCAGGAGAUCAGCGGATT (SEQ ID NO: 219) (sugars from the 5' end r19 d2, backbone not given here)  0.44 log2
17. RAG7-121: saRNA duplex; sense CUGAUCUCCUGGGAAGAAATT (SEQ ID NO: 52), antisense UUUCUUCCCAGGAGAUCAGTT (SEQ ID NO: 216) (sugars from the 5' end r19 d2, backbone not given here)  0.45 log2
18. RAG7-850: saRNA duplex; sense UUGAAAGGUUCCGAGGGGCTT (SEQ ID NO: 46), antisense GCCCCUCGGAACCUUUCAATT (SEQ ID NO: 210) (sugars from the 5' end r19 d2, backbone not given here)  0.47 log2
19. RAG7-690: saRNA duplex; sense CCUAUGCAUCCUCAUCUAUTT (SEQ ID NO: 42), antisense AUAGAUGAGGAUGCAUAGGTT (SEQ ID NO: 206) (sugars from the 5' end r19 d2, backbone not given here)  0.51 log2
20. RAG7-697: saRNA duplex; sense CCCAGGUCCUAUGCAUCCUTT (SEQ ID NO: 41), antisense AGGAUGCAUAGGACCUGGGTT (SEQ ID NO: 205) (sugars from the 5' end r19 d2, backbone not given here)  0.51 log2
21. RAG7-189: saRNA duplex; sense CUUCUUGUCUCAAUUUGCCTT (SEQ ID NO: 35), antisense GGCAAAUUGAGACAAGAAGTT (SEQ ID NO: 199) (sugars from the 5' end r19 d2, backbone not given here)  0.56 log2
22. RAG7-847: saRNA duplex; sense AAAGGUUCCGAGGGGCCAUTT (SEQ ID NO: 34), antisense AUGGCCCCUCGGAACCUUUTT (SEQ ID NO: 198) (sugars from the 5' end r19 d2, backbone not given here)  0.56 log2
23. RAG7-916: saRNA duplex; sense CUCUUCUUUGAAAGCUCAATT (SEQ ID NO: 33), antisense UUGAGCUUUCAAAGAAGAGTT (SEQ ID NO: 197) (sugars from the 5' end r19 d2, backbone not given here)  0.56 log2
24. RAG7-195: saRNA duplex; sense AGGUGCCUUCUUGUCUCAATT (SEQ ID NO: 28), antisense UUGAGACAAGAAGGCACCUTT (SEQ ID NO: 192) (sugars from the 5' end r19 d2, backbone not given here)  0.59 log2
25. RAG7-95: saRNA duplex; sense AAAAGGACACCGUUUCAGGTT (SEQ ID NO: 12), antisense CCUGAAACGGUGUCCUUUUTT (SEQ ID NO: 176) (sugars from the 5' end r19 d2, backbone not given here)  0.74 log2
